Reference: patent publication US4723039A, “Phenylacetaldehydes substituted by basic groups, their preparation and drugs containing these compounds” (BASF Aktiengesellschaft, priority 1985, dated 1988)
Counter-ions that a name gives are not always drawn.

Key:
[1] = tested on: secretion of gastric acid; experiment: Inhibition of secretion of gastric acid; format: in vivo, Sprague-Dawley rat (female); conditions: rat, oral; for ED (0.75 pH units): 1 h, dose increasing gastric mucosal surface pH by 0.75 pH units, read-out: Acid secretion-inhibiting effect ED 0.75; for Gastric acid secretion-inhibiting dose relative to verapamil: fraction of the dose required of verapamil
Procedure: Inhibition of the secretion of gastric acid is evident from an increase in the pH of the surface of the gastric mucous membrane. For this measurement, groups of from 5 to 10 female Sprague-Dawley rats weighing 160-190 g, which had remained without food for 48 hours (water ad libitum), were pretreated with different doses of the test substances, administered orally. […] The dose which produces an increase in the pH by 0.75 pH units is determined as the ED 0.75, from the linear regression of log dose and the increase in the pH.

[2] = tested on: ulcerous lesions on the mucous membrane; experiment: Antiulcerous action (reserpine/indomethacin-induced gastric ulceration); format: in vivo, Sprague-Dawley rat (female); conditions: rat, oral; for ED50: dose reducing ulcerous area by 50%, read-out: Antiulcerous effect ED 50%
Procedure: To investigate the antiulcerous action, groups of 10 female Sprague-Dawley rats weighing 160-180 g received 1 mg/kg of reserpine, administered intraperitoneally, and thereafter remained without food for 18 hours (water ad libitum). […] Thereafter, they were kept for 6 hours at 8° C. and then sacrificed. The stomach was removed and the area of the ulcerous lesions on the mucous membrane was determined.

[3] = tested on: lesions of the gastric mucous membrane; experiment: Cytoprotective action (ethanol-induced gastric lesions); format: in vivo, Sprague-Dawley rat (female); conditions: rat, oral; for ED50: dose reducing lesions by 50%, read-out: Cytoprotective effect ED 50%
Procedure: The cytoprotective action was determined on groups of 8 female Sprague-Dawley rats weighing 160-190 g, the rats having received no food for 48 hours (water ad libitum) and having been pretreated with different doses of the test substances, administered orally. 1 hour later, 10 ml/kg of 100% ethanol were administered orally to the animals. After a further hour, the animals were sacrificed by inhalation of CO2, the stomach was removed and the intensity of the lesions was assessed on the basis of the following scheme:
0=unchanged mucous membrane
1=a few areas of reddening which are narrow, elongated or small
2=reddening over broad, elongated or large interrupted areas
3=pronounced reddening which colors virtually the entire mucous membrane of the glandular stomach.

[4] = tested on: Histamine-induced bronchospasm; experiment: Broncholytic action, histamine-induced bronchospasm; format: in vivo; conditions: guinea pig, intravenous; for ED75: Cavia porcellus, 75% reduction in bronchospasms, read-out: ED 75% histamine-induced bronchospasm; for Broncholytic activity compared with verapamil, histamine-induced (in words): text does not separate the inducers
Excerpt: (§1) The animals were artificially ventilated using a Starling pump.

[5] = tested on: Acetylcholine-induced bronchospasm; experiment: Broncholytic action, acetylcholine-induced bronchospasm; format: in vivo; conditions: guinea pig, intravenous; for ED75: Cavia porcellus, 75% reduction in bronchospasms, read-out: ED 75% acetylcholine-induced bronchospasm; for Broncholytic activity compared with verapamil, acetylcholine-induced (in words): text does not separate the inducers
Excerpt: as §1

[6] = tested on: isolated spiral strips of aorta; experiment: Calcium-antagonistic action in isolated spiral strips of aorta; design: species or system Sprague-Dawley rat; conditions: in vitro; for EC50: Rattus norvegicus, 50% inhibition of the effect of 0.5 mM Ca++, K-depolarized strips, read-out: Ca-antagonistic action EC 50%; for Ca-antagonistic activity compared with verapamil (in words): rat aorta strips
Procedure: The Ca-antagonistic action was tested on spiral strips of aorta of male and female Sprague-Dawley rats weighing from 200 to 300 g.
The animals were sacrificed with ether, and the thorax and thoracic aorta were removed. A maximum of 6 spiral strips about 2 mm wide and 2 cm long were used per animal.
The strips of aorta were suspended in a modified tyrode solution at 37° C. and subjected to an initial tension with a load of 1.5 g and, after a relaxation time of about 1 hour, Ca was removed by keeping them for 5 minutes in Ca-free tyrode solution with the addition of 0.2 mM of Na EDTA.
The Ca-free strips of vessel were depolarized with K-rich tyrode solution for 10 minutes. Contraction was induced by a CaCl2 concentration of 0.5 mM. After 15 minutes, Ca was again removed from the strips of vessel by means of a Ca-free tyrode solution containing 0.2 mM of Na EDTA.
Depolarization was then effected again for 10 minutes with K-rich tyrode solution, after which 0.05 ml of the test substance was added. After the test substance had been allowed to act for 15 minutes, CaCl2 was again added in a concentration of 0.5 mM in order to check whether the test substance has a Ca-antagonistic action. Inhibition of the effect of 0.5 mM Ca^++ by the antagonistic substance is stated as a percentage.

[7] = tested on: systolic blood pressure; experiment: Antihypertensive action in spontaneously hypertensive rats; format: in vivo, spontaneously hypertensive male Okamoto rat; conditions: for Reduction in blood pressure, p.o., R.A. / ED20: SH rat, p.o.; for Reduction in blood pressure, p.o., R.A.: verapamil = 1.00; for ED20: po, 2 hours after administration, 20% reduction in systolic pressure, read-out: Reduction in blood pressure ED 20% p.o.
Procedure: To determine the antihypertensive action, the substances were administered orally to spontaneously hypertensive male Okamoto rats (4-8 animals/dose, weight 270-360 g). The systolic blood pressure was measured noninvasively on the rat's tail with the aid of piezoelectric transducers, before and 2 hours after administration. The dose which reduces the systolic pressure by 20%, relative to the values for untreated control animals, was determined as the ED 20%.

[8] = tested on: blood pressure; experiment: Hypotensive action in anesthetized rats; format: in vivo, Sprague-Dawley rat; conditions: anesthetized rat; for Reduction in blood pressure, i.v., R.A.: verapamil = 1.0; for ED20: iv, 20% decrease in blood pressure, read-out: Reduction in blood pressure ED 20% i.v.
Procedure: The blood pressure was measured in the carotid artery. The substances were administered intravenously into the jugular vein. The dose which produces a 20% decrease in blood pressure was calculated as the ED 20%, from the linear regression of log dose (mg/kg) and relative decrease in blood pressure (Δ%).

Row | Structure (SMILES) | ED (0.75 pH units) [1] | ED75 [4] | Broncholytic activity compared with verapamil, histamine-induced (in words) [4] | ED75 [5] | Broncholytic activity compared with verapamil, acetylcholine-induced (in words) [5] | EC50 [6] | Ca-antagonistic activity compared with verapamil (in words) [6] | further results
1 | CC(C)[C@@](C=O)(CCCN(C)CCc1ccccc1)c1ccccc1 [Example 2, (S)-2-[3-[(Phenylethyl)-methylamino]-propyl]-2-isopropylphenylacetaldehyde hydrochloride] | 2 mg/kg |  |  |  |  |  |  | Gastric acid secretion-inhibiting dose relative to verapamil [1]: one-fifth; ED50 [2]: 12.2 mg/kg; ED50 [3]: 9.4 mg/kg
2 | CC(C)[C@](C=O)(CCCN(C)CCc1ccccc1)c1ccccc1 [Example 3, (R)-2-[3-[(Phenylethyl)-methylamino]-propyl]-2-isopropylphenylacetaldehyde hydrochloride] | 2.1 mg/kg |  |  |  |  |  |  | Gastric acid secretion-inhibiting dose relative to verapamil [1]: one-fifth; ED50 [2]: 3.8 mg/kg; ED50 [3]: 8.3 mg/kg
3 | COc1cccc(CCN(C)CCCC(C=O)(c2ccc(OC)c(OC)c2)C(C)C)c1 (stereo not drawn) [Example 6, 2-[3-[(3-Methoxyphenylethyl)-methylamino]-propyl]-2-isopropyl-3,4-dimethoxyphenylacetaldehyde] |  | 0.59 mg/kg | substantially higher activity | 0.39 mg/kg | substantially higher activity |  |  | 
4 | COc1cccc(CCN(C)CCCC(C=O)(c2cccc(OC)c2)C(C)C)c1 (stereo not drawn) [Example 7, 2-[3-[(3-Methoxyphenylethyl)-methylamino]-propyl]-2-isopropyl-3-methoxyphenylacetaldehyde] |  | 0.61 mg/kg | substantially higher activity | 0.67 mg/kg | substantially higher activity | 22 nM |  | 
5 | COc1ccc(CCN(C)CCCC(C=O)(c2ccc(OC)c(OC)c2)C(C)C)cc1OC (stereo not drawn) [Example 8, 2-[3-[(3,4-Dimethoxyphenylethyl)-methylamino]-propyl]-2-isopropyl-3,4-dimethoxyphenylacetaldehyde] |  | 0.38 mg/kg | substantially higher activity | 0.23 mg/kg | substantially higher activity |  |  | 
6 | COc1cccc(CCN(C)CCCC(C=O)(c2cc(OC)c(OC)c(OC)c2)C(C)C)c1 (stereo not drawn) [Example 9, 2-[3-[(3-Methoxyphenylethyl)-methylamino]-propyl]-2-isopropyl-3,4,5-trimethoxyphenylacetaldehyde hydrogen oxalate] |  |  |  |  |  | 1.2 nM | substantially higher activity | 
7 | COc1ccc(CCN(C)CCCC(C=O)(c2cc(OC)c(OC)c(OC)c2)C(C)C)cc1OC (stereo not drawn) [Example 10, 2-[3-[3,4-Dimethoxyphenylethyl)-methylamino]-propyl]-2-isopropyl-3,4,5-trimethoxyphenylacetaldehyde hydrogen oxalate] |  |  |  |  |  | 19 nM | substantially higher activity | 
8 | COc1cc(CCN(C)CCCC(C=O)(c2cc(OC)cc(OC)c2)C(C)C)cc(OC)c1 (stereo not drawn) [Example 11, 2-[3-[(3,5-Dimethoxyphenylethyl)-methylamino]-propyl]-2-isopropyl-3,5-dimethoxyphenylacetaldehyde hydrogen oxalate] |  |  |  |  |  | 12 nM | substantially higher activity | 
9 | CCOc1cc(CCN(C)CCCC(C=O)(c2cc(OCC)cc(OCC)c2)C(C)C)cc(OCC)c1 (stereo not drawn) [Example 12, 2-[3-[(3,5-Diethoxyphenylethyl)-methylamino]-propyl]1-2-isopropyl-3,5-diethoxyphenylacetaldehyde hydrogen oxalate] |  | 0.65 mg/kg | substantially higher activity | 0.27 mg/kg | substantially higher activity | 32 nM |  | Reduction in blood pressure, p.o., R.A. [7]: 6.25; Blood pressure reducing dose, times smaller compared with verapamil ([7]; conscious spontaneously hypertensive rats, oral): 6.3 times; ED20 [7]: 4 mg/kg; Reduction in blood pressure, i.v., R.A. [8]: 1.13; Reduction of blood pressure compared with verapamil (in words) ([8]; i.v.): reduces the blood pressure to a somewhat greater extent than verapamil; ED20 ([8]; i.v.): 0.3 mg/kg
10 | COc1ccc(CCN(C)CCCC(C#N)(c2ccc(OC)c(OC)c2)C(C)C)cc1OC (stereo not drawn) [Verapamil, verapamil, reference compound] | 10.5 mg/kg | 1.3 mg/kg |  | 0.56 mg/kg |  | 35 nM |  | Reduction in blood pressure, p.o., R.A. [7]: 1.00; ED20 [7]: 25 mg/kg; Reduction in blood pressure, i.v., R.A. [8]: 1.0; ED20 ([8]; i.v.): 0.34 mg/kg; Antiulcerous effect ED 50% (no effect) [2]: (2); Cytoprotective effect ED 50% (no effect) [3]: (2)
